Where “and” joins values, the source holds several entries; their conditions need not be identical. Equal values may be shown once. Residues, ends and D or L forms follow the SMILES beside them. *: point of attachment. NHPh = c1ccc(N*)cc1
Biological target: T1, human Nav1.7 (Homo sapiens, UniProt Q15858)
T1 construct: expressed in transfected cells; host or cells: HEK293 stably expressing human Nav1.7
Assay: Whole-cell patch-clamp, HEK293 cells stably expressing human Nav1.7 with GFP or FGF13-GFP
Format: cell-based
Parameters: Nav1.7 repriming time course, Mean / Figure 4I, Mean versus Time (ms): unit not given here
Details: for Figure 4G, Mean per step (normalized): N 10; for Figure 4H, Mean per step (step 1 = 100): N 9
Description: Whole-cell patch clamp electrophysiology
HEK293-Nav1.7 cells, HEK293 stably expressing human Nav1.6 (HEK-Nav1.6), HEK293 stably expressing human Nav1.5 (HEK-Nav1.5), human hIPSC-derived sensory neurons (RealDRGTM from Anatomic Incorporated 1020F1-1M) and donor-derived DRG neurons were plated at low density on glass coverslips and processed for whole-cell patch clamp electrophysiology in voltage-clamp and/or current clamp mode. Whole-cell patch electrophysiological experiments were conducted following previously published studies (26). Current densities were obtained by dividing INa amplitude by membrane capacitance. Current –voltage relationships were generated by plotting current density as a function of the […]. Conductance (G Na) was calculated by the […]
where INa is the current amplitude at voltage Vm, and Erev is the Na+ reversal potential.
Activation curves were derived by plotting normalized GNa as a function of test potential and fitted using […]
Where GNa,Max is the maximum conductance, Va is the membrane potential of half-maximal activation, Em is the membrane voltage and k is the slope factor. For steady -state inactivation, normalized current amplitude (INa/INa,Max) at the test potential was plotted as a function of prepulse potential (Vm) and fitted using the […]
Where Vh is the potential of half-maximal inactivation, E m is the membrane voltage, and k is the slope factor.
Transient INa inactivation decay was estimated with the standard exponential equation. Inactivation time constant (tau, τ) was fitted with the following equation: […]
where I(t) is the amplitude of the current at time t and Iss is the steady-state current during a single voltage-step.
The goodness of fitting was determined by correlation coefficient (R), and the cutoff of R was set at 0.85. To observe effects on long-term inactivation (LTI), a four-step protocol was employed during which cells were subjected to four 0 mV, 20 ms depolarization pulses separated by −90 mV, 40 ms recovery intervals. To control for various cell sizes, the current densities were calculated by dividing INa peak current amplitude/membrane capacitance (Cm). To represent the fraction of channels entering into LTI, the peak INa observed during depolarization cycles 2-4 was normalized to the peak INa observed during depolarization cycle 1 (INa/INa,Cycle 1) and plotted as a function of the depolarization cycle.
The cumulative (frequency-dependent) use-dependency was determined by applying 20 pulses with a depolarization to −10 mV (50 ms duration) and 50 ms recovery intervals with a train of 20 pulses at 10 Hz from a holding potential at -70 mV. The current pulses were normalized to the first reco rded pulse and the currents at the 2nd to 20th pulses were compared. The same train was used to record use-dependency at various frequencies […]
The rate of recovery from inactivation was recorded at -80 mV with a standard repriming voltage protocol.
The cells were prepulsed to -20 mV for 20 ms to inactivate all currents, then driven back to the recovery potential (Vrec) for increasing recovery durations before the test pulse to 0 mV. The maximum pulse rate was 0.5 Hz. The […]
follows previous publications (16). The time constants were estimated from single exponential decay to time courses measured at recovery potentials ranging from -140 to -60 mV with the protocol as mentioned above.
Electrophysiological Recordings
HEK293 cells: Electrophysiological recordings in HEK293 stably expressing Nav1.7 (HEK-Nav1.7), Nav1.5 (HEK-Nav1.5) or Nav1.6 (HEK-Nav1.6) were performed at room temperature using a MultiClamp 700B or an Axopatch 200B amplifier (Molecular Devices) after incubating coverslips for 60 minutes either with 0.1% DMSO or 50 μM PW164 or ZL192 in the extracellular solution. The composition of recording solutions consisted of the […]
following salts: extracellular (mM): 140 NaCl, 3 KCl, 1 MgCl2, 1 CaCl2, 10 HEPES, 10 glucose, pH 7.3; […]
intracellular (mM): 130 CH3O3 SCs, 1 EGTA, 10 NaCl, 10 HEPES, pH 7.3. […]

T1 sequence (Q92913 1-192 partner limits assumed): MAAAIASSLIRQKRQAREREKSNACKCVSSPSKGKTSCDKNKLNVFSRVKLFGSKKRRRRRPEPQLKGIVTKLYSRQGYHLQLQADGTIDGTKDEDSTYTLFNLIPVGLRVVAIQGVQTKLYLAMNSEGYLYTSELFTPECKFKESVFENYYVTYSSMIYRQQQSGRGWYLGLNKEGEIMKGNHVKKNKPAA
T1 sequence (Q15858 1-1977 isoform Q15858-3): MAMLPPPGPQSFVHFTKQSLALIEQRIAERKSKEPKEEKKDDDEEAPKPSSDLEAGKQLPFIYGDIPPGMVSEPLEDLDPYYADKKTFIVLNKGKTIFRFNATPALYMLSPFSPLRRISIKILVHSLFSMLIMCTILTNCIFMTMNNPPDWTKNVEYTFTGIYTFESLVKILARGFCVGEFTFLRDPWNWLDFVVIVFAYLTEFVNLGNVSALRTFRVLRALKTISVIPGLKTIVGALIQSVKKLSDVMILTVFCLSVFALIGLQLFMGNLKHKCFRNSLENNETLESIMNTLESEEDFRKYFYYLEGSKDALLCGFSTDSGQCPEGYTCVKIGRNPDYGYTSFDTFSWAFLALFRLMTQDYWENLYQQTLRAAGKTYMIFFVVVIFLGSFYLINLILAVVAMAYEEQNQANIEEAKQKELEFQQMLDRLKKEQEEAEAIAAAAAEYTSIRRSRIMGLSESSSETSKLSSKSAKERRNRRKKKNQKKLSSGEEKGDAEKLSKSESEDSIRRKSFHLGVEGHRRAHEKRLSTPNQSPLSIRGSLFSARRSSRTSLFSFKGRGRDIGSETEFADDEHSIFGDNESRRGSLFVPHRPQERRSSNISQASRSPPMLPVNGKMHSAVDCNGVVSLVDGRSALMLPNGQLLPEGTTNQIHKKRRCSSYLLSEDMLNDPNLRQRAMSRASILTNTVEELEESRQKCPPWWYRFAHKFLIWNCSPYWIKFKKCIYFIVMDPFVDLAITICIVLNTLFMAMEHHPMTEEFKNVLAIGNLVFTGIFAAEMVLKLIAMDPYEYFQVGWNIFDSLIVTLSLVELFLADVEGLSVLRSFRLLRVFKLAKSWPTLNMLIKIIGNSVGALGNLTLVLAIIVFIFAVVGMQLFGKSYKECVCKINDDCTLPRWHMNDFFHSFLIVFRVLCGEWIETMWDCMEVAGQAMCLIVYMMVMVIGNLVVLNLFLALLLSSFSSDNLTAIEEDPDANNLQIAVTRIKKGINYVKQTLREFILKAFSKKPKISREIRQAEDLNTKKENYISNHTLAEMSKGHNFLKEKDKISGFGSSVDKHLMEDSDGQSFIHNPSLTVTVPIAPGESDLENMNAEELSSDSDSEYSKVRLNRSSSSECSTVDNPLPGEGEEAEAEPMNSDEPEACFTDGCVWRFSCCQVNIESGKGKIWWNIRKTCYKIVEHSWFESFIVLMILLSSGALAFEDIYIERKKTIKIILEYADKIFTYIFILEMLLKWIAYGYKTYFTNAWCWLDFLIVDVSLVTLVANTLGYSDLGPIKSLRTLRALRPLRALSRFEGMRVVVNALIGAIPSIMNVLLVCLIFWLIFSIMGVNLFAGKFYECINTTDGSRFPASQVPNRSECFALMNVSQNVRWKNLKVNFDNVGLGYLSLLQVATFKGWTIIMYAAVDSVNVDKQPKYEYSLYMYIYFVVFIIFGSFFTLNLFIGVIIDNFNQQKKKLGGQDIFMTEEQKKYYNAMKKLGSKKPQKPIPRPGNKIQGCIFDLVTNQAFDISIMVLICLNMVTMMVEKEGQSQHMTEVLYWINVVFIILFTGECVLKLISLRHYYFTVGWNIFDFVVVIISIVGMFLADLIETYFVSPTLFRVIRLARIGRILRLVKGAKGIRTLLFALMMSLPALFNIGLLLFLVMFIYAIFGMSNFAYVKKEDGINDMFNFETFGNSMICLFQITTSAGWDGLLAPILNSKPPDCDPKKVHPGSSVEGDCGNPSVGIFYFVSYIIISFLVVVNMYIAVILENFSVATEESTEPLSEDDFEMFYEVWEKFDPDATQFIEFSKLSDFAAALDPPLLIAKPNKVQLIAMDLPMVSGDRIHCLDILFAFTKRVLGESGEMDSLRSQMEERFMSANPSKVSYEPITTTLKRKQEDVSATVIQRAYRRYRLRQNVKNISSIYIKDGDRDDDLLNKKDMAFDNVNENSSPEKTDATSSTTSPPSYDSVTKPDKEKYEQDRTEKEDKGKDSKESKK

Q: How did the “Figure 4G, Mean per step (normalized)” value (Nav1.7 + FGF13-GFP, Steps 20) turn out when `CC(=O)N[C@@H](Cc1ccccc1)C(=O)N[C@@H](CC(C)C)C(=O)N1CCC[C@H]1C(=O)N[C@@H](CCCCN)C(=O)Nc1ccccc1` [ZL192] (Ac-FLPK-NHPh) was run?
A: Its value is 0.8672.

Q: And the “Figure 4I, Mean versus Time (ms)” value (Nav1.7 + FGF13-GFP, Time (ms) 2, N 7)?
A: The value was -2.382.

Q: And the “Figure 4I, Mean versus Time (ms)” value (Nav1.7 + FGF13-GFP, Time (ms) 5, N 7)?
A: The value was -10.2316.

Q: What about the “Figure 4I, Mean versus Time (ms)” value (Nav1.7 + FGF13-GFP, Time (ms) 9, N 7) of the same molecule?
A: The value was -21.032.

Q: And the “Figure 4I, Mean versus Time (ms)” value (Nav1.7 + FGF13-GFP, Time (ms) 17, N 7)?
A: Its value is -28.22.

Q: What about the “Figure 4I, Mean versus Time (ms)” value (Nav1.7 + FGF13-GFP, Time (ms) 33, N 7) of the same molecule?
A: The value was -35.2152.

Q: And the “Figure 4I, Mean versus Time (ms)” value (Nav1.7 + FGF13-GFP, Time (ms) 65, N 7)?
A: Its value is -41.6453.

Q: And the “Figure 4I, Mean versus Time (ms)” value (Nav1.7 + FGF13-GFP, Time (ms) 129, N 7)?
A: The value was -47.08.

Q: What about the “Figure 4I, Mean versus Time (ms)” value (Nav1.7 + FGF13-GFP, Time (ms) 257, N 7) of the same molecule?
A: Its value is -58.7924.

Q: And the “Figure 4I, Mean versus Time (ms)” value (Nav1.7 + FGF13-GFP, Time (ms) 513, N 7)?
A: Its value is -60.0808.

Q: And the “Figure 4I, Mean versus Time (ms)” value (Nav1.7 + FGF13-GFP, Time (ms) 1025, N 7)?
A: Its value is -61.473.

Q: What about the “Figure 4I, Mean versus Time (ms)” value (Nav1.7 + FGF13-GFP, Time (ms) 2000, N 7) of the same molecule?
A: The value was -62.66.

Q: What about the “Current density pA/pF (Figure 4D), individual cells” value (Nav1.7 + GFP) of the same molecule?
A: Its value is -42.7131 pA/pF and -116.886 pA/pF and -86.2507 pA/pF and -55.3628 pA/pF and -87.5203 pA/pF and -98.7467 pA/pF and -44.4757 pA/pF and -64.4298 pA/pF and -57.1752 pA/pF and -107.666 pA/pF and -47.813 pA/pF.

Q: And the “Figure 4H, Mean per step (step 1 = 100)” value (Nav1.7 + GFP, Steps 1)?
A: Its value is 100.

Q: What about the “Figure 4G, Mean per step (normalized)” value (Nav1.7 + GFP, Steps 1) of the same molecule?
A: Its value is 1.

Q: What about the “Figure 4H, Mean per step (step 1 = 100)” value (Nav1.7 + GFP, Steps 2) of the same molecule?
A: Its value is 67.9415.

Q: What about the “Figure 4H, Mean per step (step 1 = 100)” value (Nav1.7 + GFP, Steps 3) of the same molecule?
A: The value was 62.3546.

Q: What about the “Figure 4G, Mean per step (normalized)” value (Nav1.7 + GFP, Steps 3) of the same molecule?
A: The value was 0.8342.

Q: What about the “Figure 4H, Mean per step (step 1 = 100)” value (Nav1.7 + GFP, Steps 4) of the same molecule?
A: The value was 60.931.

Q: What about the “Figure 4G, Mean per step (normalized)” value (Nav1.7 + GFP, Steps 5) of the same molecule?
A: The value was 0.7578.

Q: And the “Figure 4G, Mean per step (normalized)” value (Nav1.7 + GFP, Steps 10)?
A: Its value is 0.7548.

Q: What about the “Figure 4G, Mean per step (normalized)” value (Nav1.7 + GFP, Steps 15) of the same molecule?
A: The value was 0.7445.

Q: And the “Figure 4G, Mean per step (normalized)” value (Nav1.7 + GFP, Steps 20)?
A: The value was 0.751.

Q: What about the “Figure 4I, Mean versus Time (ms)” value (Nav1.7 + GFP, Time (ms) 2, N 6) of the same molecule?
A: The value was -1.684.

Q: And the “Figure 4I, Mean versus Time (ms)” value (Nav1.7 + GFP, Time (ms) 5, N 6)?
A: The value was -3.032.

Q: And the “Figure 4I, Mean versus Time (ms)” value (Nav1.7 + GFP, Time (ms) 9, N 6)?
A: Its value is -5.9665.

Q: And the “Figure 4I, Mean versus Time (ms)” value (Nav1.7 + GFP, Time (ms) 17, N 6)?
A: The value was -10.1843.

Q: What about the “Figure 4I, Mean versus Time (ms)” value (Nav1.7 + GFP, Time (ms) 33, N 6) of the same molecule?
A: The value was -13.6758.

Q: What about the “Figure 4I, Mean versus Time (ms)” value (Nav1.7 + GFP, Time (ms) 65, N 6) of the same molecule?
A: Its value is -16.716.

Q: And the “Figure 4I, Mean versus Time (ms)” value (Nav1.7 + GFP, Time (ms) 129, N 6)?
A: The value was -20.6484.

Q: What about the “Figure 4I, Mean versus Time (ms)” value (Nav1.7 + GFP, Time (ms) 257, N 6) of the same molecule?
A: Its value is -23.8114.

Q: And the “Figure 4I, Mean versus Time (ms)” value (Nav1.7 + GFP, Time (ms) 513, N 6)?
A: Its value is -25.3409.

Q: What about the “Figure 4I, Mean versus Time (ms)” value (Nav1.7 + GFP, Time (ms) 1025, N 6) of the same molecule?
A: The value was -26.7193.

Q: And the “Figure 4I, Mean versus Time (ms)” value (Nav1.7 + GFP, Time (ms) 2000, N 6)?
A: The value was -29.0414.

Reference: PMC12259270, “Sensory neuron–expressed FGF13 controls nociceptive signaling in diabetic neuropathy models” (The Journal of Clinical Investigation, 2025)
